pIC50: −log10 of the molar value.
Tests used:
CDK2/CycE = biological target: T1, CDK2/CycE (Homo sapiens, UniProt P24941); assay: CDK2/CycE kinase assay (TR-FRET); format: biochemical; conditions: avg, read-out: CDK2 avg (IC50 [mol/l])
T1 construct: GST; purchased ProQinase GmbH (Freiburg, Germany); host or cells: insect cells (Sf9)
Outline: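 Read-out is a TR-FRET 665/620 nm emission ratio from EDTA-stopped reactions detected with anti-pRB(pSer807/pSer811), Eu-labelled anti-mouse IgG and streptavidin-XL665, scaled between no-enzyme and uninhibited wells. Reaction: Sf9-expressed GST-CDK2/GST-CycE, 15 min compound preincubation, 10 μM ATP, 0.75 μM biotin-peptide, 25 min, 22° C., pH 8.0 Tris buffer.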

[1] = system: human cervical tumor cell line HeLa (ATCC CCL-2); assay: SAC-Formation - Paclitaxel-Induced Assay; format: cell-based; conditions: Homo sapiens, HeLa, 24 h, HeLa cells, paclitaxel 0.05 μM, test range 0.005 μM-20 μM, read-out: IC50 [mol/l] SAC-Formation - Paclitaxel-Induced Assay
Outline: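 Read-out is high-content imaging of anti-phospho-H3 Ser10 (mitosis) and Hoechst 33342 (DNA, cell number), with decreased mitotic fraction marking checkpoint breakthrough. Compounds (0.005–20 μM) and 0.05 μM paclitaxel co-added to overnight-plated HeLa for 24 h at 37° C; four-parameter Hill fit.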

Compound: Cc1nsc(Nc2cnc(C(F)(F)F)cn2)c1C(=O)Nc1ccc(OC2CCN(CC(F)F)C2)nc1 (stereo not drawn) [Example 296, N-(6-{[1-(2,2-difluoroethyl)pyrrolidin-3-yl]oxy}pyridin-3-yl)-3-methyl-5-{[5-(trifluoromethyl)pyrazin-2-yl]amino}-1,2-thiazole-4-carboxamide]
- pIC50 (CDK2/CycE): < 4.70
- pIC50 [1]: 6.52

Compound: Cc1nsc(Nc2cc(C#N)ccn2)c1C(=O)Nc1ccc(OC2CCNCC2)nc1 [Example 24, 5-[(4-Cyanopyridin-2-yl)amino]-3-methyl-N-[6-(piperidin-4-yloxy)pyridin-3-yl]-1,2-thiazole-4-carboxamide]
- pIC50 (CDK2/CycE): ≤ 4.70
- pIC50 [1]: 4.70

Compound: Cc1nsc(Nc2cc(C#N)ccn2)c1C(=O)Nc1ccc(OC2CCN(CC(F)F)CC2)nc1 [Example 263, 5-[(4-cyanopyridin-2-yl)amino]-N-(6-{[1-(2,2-difluoroethyl)piperidin-4-yl]oxy}pyridin-3-yl)-3-methyl-1,2-thiazole-4-carboxamide]
- pIC50 (CDK2/CycE): < 4.70
- pIC50 [1]: 5.46

Compound: Cc1nsc(Nc2cnc(C(F)(F)F)cn2)c1C(=O)Nc1ccc(F)c(OCC2CCN(C(CF)CF)CC2)c1 [Example 312, N-(3-{[1-(1,3-difluoropropan-2-yl)piperidin-4-yl]methoxy}-4-fluorophenyl)-3-methyl-5-{[5-(trifluoromethyl)pyrazin-2-yl]amino}-1,2-thiazole-4-carboxamide]
- pIC50 (CDK2/CycE): ≤ 4.70

Compound: Cc1nsc(Nc2cnc3ccccc3n2)c1C(=O)Nc1cccc(NS(=O)(=O)C2CCCN(C(=O)OCc3ccccc3)C2)c1 (stereo not drawn) [Example 291, benzyl 3-{[3-({[3-methyl-5-(quinoxalin-2-ylamino)-1,2-thiazol-4-yl]carbonyl}amino)phenyl]sulfamoyl} piperidine-1-carboxylate]
- pIC50 (CDK2/CycE): 4.85
- pIC50 [1]: 5.32

Compound: Cc1nsc(Nc2cnc(C(F)(F)F)cn2)c1C(=O)Nc1cccc(NC(=O)OC(C)(C)C)c1 [Example 284, 3-tert-butyl (3-{[(3-methyl-5-{[5-(trifluoromethyl)pyrazin-2-yl]amino}-1,2-thiazol-4-yl)carbonyl]amino}phenyl)carbamate]
- pIC50 (CDK2/CycE): < 4.70
- pIC50 [1]: 6.92

Compound: Cc1nsc(Nc2cnc3ccccc3n2)c1C(=O)Nc1ccc(OC2CCN(CC(F)(F)F)CC2)nc1 [Example 21, 3-Methyl-5-(quinoxalin-2-ylamino)-N-(6-{[1-(2,2,2-trifluoroethyl)piperidin-4-yl]oxy}-pyridin-3-yl)-1,2-thiazole-4-carboxamide]
- pIC50 (CDK2/CycE): ≤ 4.70
- pIC50 [1]: 6.82

Compound: Cc1nsc(Nc2cnc(C(F)(F)F)cn2)c1C(=O)Nc1ccc(OCCCNCC(F)F)nc1 [Example 293, N-(6-{3-[(2,2-difluoroethyl)amino]propoxy}pyridin-3-yl)-3-methyl-5-{[5-(trifluoromethyl)pyrazin-2-yl]amino}-1,2-thiazole-4-carboxamide]
- pIC50 (CDK2/CycE): < 4.70
- pIC50 [1]: 5.40

Compound: Cc1nsc(Nc2cnc3ccccc3n2)c1C(=O)Nc1cccc(NS(=O)(=O)C2CN(CCF)C2)c1 [Example 287, N-[3-({[1-(2-fluoroethyl)azetidin-3-yl]sulfonyl}amino)phenyl]-3-methyl-5-(quinoxalin-2-ylamino)-1,2-thiazole-4-carboxamide]
- pIC50 (CDK2/CycE): < 4.70
- pIC50 [1]: 5.09

Compound: Cc1nsc(Nc2ccc(C#N)cn2)c1C(=O)Nc1cccc(C(=O)NC(C)C)c1 [Example 255, 5-[(5-cyanopyridin-2-yl)amino]-N-[3-(isopropylcarbamoyl)phenyl]-3-methyl-1,2-thiazole-4-carboxamide]
- pIC50 (CDK2/CycE): < 4.70
- pIC50 [1]: 5.00

Compound: CCN1CCN(C(=O)c2ccc(NC(=O)c3c(C)nsc3Nc3cncc(C(F)(F)F)n3)cc2)CC1 [Example 275, N-{4-[(4-ethylpiperazin-1-yl)carbonyl]phenyl}-3-methyl-5-{[6-(trifluoromethyl)pyrazin-2-yl]amino}-1,2-thiazole-4-carboxamide]
- pIC50 (CDK2/CycE): 5.08
- pIC50 [1]: 5.36

Compound: CCNC(=O)c1cccc(NC(=O)c2c(C)nsc2Nc2cnc3ccccc3n2)c1 [Example 251, N-[3-(ethylcarbamoyl)phenyl]-3-methyl-5-(quinoxalin-2-ylamino)-1,2-thiazole-4-carboxamide]
- pIC50 (CDK2/CycE): < 4.70
- pIC50 [1]: 5.52

Compound: Cc1nsc(Nc2ccc(C#N)cn2)c1C(=O)Nc1cccc(C(=O)NC2CC2)c1 [Example 250, 5-[(5-cyanopyridin-2-yl)amino]-N-[3-(cyclopropylcarbamoyl)phenyl]-3-methyl-1,2-thiazole-4-carboxamide]
- pIC50 (CDK2/CycE): < 4.70
- pIC50 [1]: 5.33

Compound: Cc1nsc(Nc2cnc(C(F)(F)F)cn2)c1C(=O)Nc1ccc(F)c(OCC2CCN(CC(F)(F)F)CC2)c1 [Example 310, N-(4-fluoro-3-{[1-(2,2,2-trifluoroethyl)piperidin-4-yl]methoxy}phenyl)-3-methyl-5-{[5-(trifluoromethyl)pyrazin-2-yl]amino}-1,2-thiazole-4-carboxamide]
- pIC50 (CDK2/CycE): ≤ 4.70
- pIC50 [1]: 7.31

Compound: Cc1nsc(Nc2cnc(C(F)(F)F)cn2)c1C(=O)Nc1ccc(F)c(OCCCN(C)CC(F)(F)F)c1 [Example 302, N-(4-fluoro-3-{3-[methyl(2,2,2-trifluoroethyl)amino]propoxy}phenyl)-3-methyl-5-{[5-(trifluoromethyl)pyrazin-2-yl]amino}-1,2-thiazole-4-carboxamide]
- pIC50 (CDK2/CycE): < 4.70
- pIC50 [1]: 6.37

Compound: Cc1nsc(Nc2cnc(C(F)(F)F)cn2)c1C(=O)Nc1ccc(OCCCO)nc1 [Example 279, N-[6-(3-hydroxypropoxy)pyridin-3-yl]-3-methyl-5-{[5-(trifluoromethyl)pyrazin-2-yl]amino}-1,2-thiazole-4-carboxamide]
- pIC50 (CDK2/CycE): < 4.70
- pIC50 [1]: 6.14

Compound: COC(=O)CCCc1ccc(NC(=O)c2c(C)nsc2Nc2cc(C#N)ccn2)cc1 [Example 256, methyl 4-{4-[({5-[(4-cyanopyridin-2-yl)amino]-3-methyl-1,2-thiazol-4-yl}carbonyl)amino]phenyl}butanoate]
- pIC50 (CDK2/CycE): < 4.70
- pIC50 [1]: 5.44

Compound: Cc1nsc(Nc2cnc(C(F)(F)F)cn2)c1C(=O)Nc1ccc(F)c(OCC2CCN(CCC(F)(F)F)CC2)c1 [Example 311, N-(4-fluoro-3-{[1-(3,3,3-trifluoropropyl)piperidin-4-yl]methoxy}phenyl)-3-methyl-5-{[5-(trifluoromethyl)pyrazin-2-yl]amino}-1,2-thiazole-4-carboxamide]
- pIC50 (CDK2/CycE): < 4.70
- pIC50 [1]: 6.32

Compound: Cc1nsc(Nc2cnc(C(F)(F)F)cn2)c1C(=O)Nc1ccc(OCCNCC(F)(F)F)nc1 [Example 322, 3-methyl-N-(6-{2-[(2,2,2-trifluoroethyl)amino]ethoxy}pyridin-3-yl)-5-{[5-(trifluoromethyl)pyrazin-2-yl]amino}-1,2-thiazole-4-carboxamide]
- pIC50 (CDK2/CycE): ≤ 4.70
- pIC50 [1]: 6.82

Compound: CCN1CCN(C(=O)c2ccc(NC(=O)c3c(C)nsc3Nc3cnc(C(F)(F)F)cn3)cc2)CC1 [Example 261, N-{4-[(4-ethylpiperazin-1-yl)carbonyl]phenyl}-3-methyl-5-{[5-(trifluoromethyl)pyrazin-2-yl]amino}-1,2-thiazole-4-carboxamide]
- pIC50 (CDK2/CycE): < 4.70
- pIC50 [1]: 5.54

Compound: Cc1nsc(Nc2cnc(C(F)(F)F)cn2)c1C(=O)Nc1ccc(F)c(OC2CCN(CC(F)F)CC2)c1 [Example 265, N-(3-{[1-(2,2-difluoroethyl)piperidin-4-yl]oxy}-4-fluorophenyl)-3-methyl-5-{[5-(trifluoromethyl)pyrazin-2-yl]amino}-1,2-thiazole-4-carboxamide]
- pIC50 (CDK2/CycE): < 4.70
- pIC50 [1]: 6.82

Compound: Cc1nsc(Nc2cnc(C(F)(F)F)cn2)c1C(=O)Nc1ccc(N(C)C)c(OCCCN(C)CC(F)(F)F)c1 [Example 299, N-[4-(dimethylamino)-3-{3-[methyl(2,2,2-trifluoroethyl)amino]propoxy}phenyl]-3-methyl-5-{[5-(trifluoromethyl)pyrazin-2-yl]amino}-1,2-thiazole-4-carboxamide]
- pIC50 (CDK2/CycE): < 4.70
- pIC50 [1]: 6.72

Compound: Cc1nsc(Nc2cnc(C(F)(F)F)cn2)c1C(=O)Nc1ccc(OC2CCN(CCF)C2)nc1 (stereo not drawn) [Example 295, N-(6-{[1-(2-fluoroethyl)pyrrolidin-3-yl]oxy}pyridin-3-yl)-3-methyl-5-{[5-(trifluoromethyl)pyrazin-2-yl]amino}-1,2-thiazole-4-carboxamide]
- pIC50 (CDK2/CycE): < 4.70
- pIC50 [1]: 5.92

Compound: Cc1nsc(Nc2cnc3ccccc3n2)c1C(=O)Nc1cccc(NS(=O)(=O)C2CN(CC(F)F)C2)c1 [Example 286, N-[3-({[1-(2,2-difluoroethyl)azetidin-3-yl]sulfonyl}amino)phenyl]-3-methyl-5-(quinoxalin-2-ylamino)-1,2-thiazole-4-carboxamide]
- pIC50 [1]: 5.19

Compound: Cc1nsc(Nc2cnc3ccccc3n2)c1C(=O)Nc1cccc(NS(=O)(=O)C2CCN(CC(F)(F)F)C2)c1 (stereo not drawn) [Example 289, 3-methyl-5-(quinoxalin-2-ylamino)-N-[3-({[1-(2,2,2-trifluoroethyl)pyrrolidin-3-yl]sulfonyl}amino)phenyl]-1,2-thiazole-4-carboxamide]
- pIC50 [1]: 5.48

Compound: Cc1nsc(Nc2cnc3ccccc3n2)c1C(=O)Nc1cccc(NS(=O)(=O)C2CCN(CCC(F)(F)F)CC2)c1 [Example 283, 3-methyl-5-(quinoxalin-2-ylamino)-N-[3-({[1-(3,3,3-trifluoropropyl)piperidin-4-yl]sulfonyl}amino)phenyl]-1,2-thiazole-4-carboxamide]
- pIC50 [1]: 5.15
